The test system of data set [1] is VGSC of SH-SY5Y cells (Nav1.7, Nav1.2, Nav1.3). In words: Patch-clamp recording of VGSC current in differentiated SH-SY5Y cells. It is filed as cell-based, human. As to conditions: 1-6 μM (2 μM in FIG. 4); listed as Aβ25-35 peptide. The source says:
Furthermore, the inventors focused on the relationship between taste receptors, particularly the sweet or umami receptors containing the T1R3 subunit, which are widely expressed in the brain and nervous system, including the hippocampus and cortex. They used human neuroblastoma cells (SH-SY5Y) that functionally express Nav1.2, Nav1.3, and Nav1.7 (as reported in non-patent literature 8), as well as HEK cells stably expressing Nav1.5 (with endogenous expression of T1R1, T1R2, and T1R3). They observed the effects of taste stimuli on sodium channel activation. By reducing the expression of T1R1 and T1R3 genes using silencing vectors, they confirmed that the effects on sodium channel currents induced by taste stimuli act through taste receptor GPCRs.
The SH-SY5Y cell culture medium was prepared by mixing DMEM (Sigma-Aldrich) and F-12 (Sigma-Aldrich) in equal proportions. To induce neuronal-like differentiation, the medium contained 1% FBS (BioWest), 5% 40 mM L-Glutamine (Fuji Film), and 1% MEM non-essential amino acids (Wako Pure Chemical Industries). During differentiation, SH-SY5Y cells were cultured for at least 5 days with the addition of 10 μM/ml retinoic acid (Fuji Film). In this document, “SH-SY5Y cells” refer to the SH-SY5Y cell line differentiated into neuronal-like cells.

The subject of data set [2] is Nav1.6. In words: Patch-clamp recording of VGSC current in HEK (Nav1.6) cells. It is filed as cell-based, human. An excerpt: The cells used in the previous (18-1) experiment were cardiac-type VGSC cells. In this experiment, HEK (Nav1.1) and HEK (Nav1.6) cells, which are considered neuronal VGSC cells, were created. The effects of four peptides—Aβ25-35, Aβ1-38, Aβ1-40, and Aβ1-42—were examined using the same experimental protocol as in (18-1). […]
On the technique in general: The patch-clamp technique gives a direct electrical read-out from membranes.

The test system of another data set is Nav1.1. In words: Patch-clamp recording of VGSC current in HEK (Nav1.1) cells. It is filed as cell-based, human. An excerpt: The cells used in the previous (18-1) experiment were cardiac-type VGSC cells. In this experiment, HEK (Nav1.1) and HEK (Nav1.6) cells, which are considered neuronal VGSC cells, were created. The effects of four peptides—Aβ25-35, Aβ1-38, Aβ1-40, and Aβ1-42—were examined using the same experimental protocol as in (18-1).

Another data set concerns VGSC. In words: Patch-clamp recording of VGSC current, cell type not specified or several cell types (summary statements). It is filed as cell-based, human. As to conditions: for Enhancement of VGSC current at high(er) concentration: high concentration (desensitization); for IC50: read-out: IC50 for inhibition of VGSC.
For data set [3], the system named is Nav1.5 in T1R3-silenced HEK cells. In words: VGSC current in HEK Nav1.5 cells with silenced T1R3. In kind it is cell-based, human. The source says: The miRNAs Oligo (Thermofisher) used for silencing were annealed to form double-stranded DNA, which was then linked to the miR RNAi Expression Vector using T4 DNA ligase to create the knockdown vector. Specifically, the procedure followed the miR RNAi Expression Vector Kit manual (BLOCK-i™ Pol II miR RNAi Expression Vector Kit with EmGFP (Catalog number: K493600)).
Since Aβ25-35 peptide produced similar effects (enhancing VGSC activity, lowering the excitability threshold) as glutamine, it was considered that Aβ25-35 peptide might also act on T1R2/T1R3 receptors like glutamine. Therefore, in this implementation example, we used HEK-Nav1.5 cells with silenced T1R3 and compared the effect of Aβ25-35 peptide on VGSC with that in control HEK-Nav1.5 cells.
To strengthen these findings, we conducted similar experiments using HEK Nav1.5 cells in which T1R3 expression was silenced (FIG. 22). We measured VGSC currents in T1R3-silenced HEK Nav1.5 cells, applying stimuli every 8 seconds.

Data set [4] concerns endogenous T1R GPCR of HEK cells. In words: Intracellular calcium (Cal-520) in HEK cells stably expressing Nav1.1 with endogenous T1R GPCR. In kind it is cell-based, human. The conditions noted are these: 10 nM then 20 nM for Aβ1-40 and Aβ1-42. As for the experimental part:
Specifically, experiments were conducted as follows using HEK cells stably expressing Nav1.1 (FIG. 45). The calcium-sensitive reagent (Cal-520, AAT Bioquest) was incubated at 37° C. for 60 minutes, followed by incubation at room temperature for 30 minutes, and then changes in intracellular calcium were measured using a fluorescence microscope. […] Initially, 10 nM, followed by 20 nM of Aβ1-40 was applied after 5 minutes (arrow). […] A total of 6 cell groups from two independent experiments were measured, averaged by the maximum fluorescence response value, and the mean and standard error (stderr) were calculated and plotted. […] 10 nM, followed by 20 nM of Aβ1-42 was applied after 5 minutes (arrow). […] A total of 12 cell groups from two independent experiments were measured, averaged by the minimum fluorescence response value, and the mean and standard error (stderr) were calculated and plotted. Similar to the experimental results using the patch-clamp method when Aβ peptide was applied to Nav1.5, it was confirmed from intracellular calcium measurements that the effects of Aβ1-40 and Aβ1-42 were different.
On the technique in general: A change in cytosolic calcium serves as a functional read-out for many receptors and channels.

The test system of a further data set is HEK Nav1.5 cells. In words: GFP-Tubulin / GFP-Actin cytoskeleton observation in HEK Nav1.5 cells. It is filed as cell-based, human. The conditions noted are these: MSG 5 mM. The source says: To observe the impact of cinacalcet and Aβ1-42 peptide on microfilament (actin) fiber structures, we labeled cells with GFP-Actin (FIG. 34). […] This experimental approach, using GFP-Tubulin, GFP-Actin, or other fluorescent proteins to label microtubules and microfilaments, can be used to screen compounds that regulate the activity of ion channels and neuronal function-controlling proteins. Additionally, simultaneous labeling of tubulin and actin can be achieved using fluorescent antibodies or phalloidin after cell fixation.

The test system of data set [5] is SH-SY5Y cells. In words: Action potentials of differentiated SH-SY5Y cells (current clamp, NanoCharge method). In kind it is cell-based, human. The conditions noted are these: listed as Aβ25-35 peptide. Here is the method: Next, using the current-clamp mode, we applied current stimulation and recorded action potentials from differentiated SH-SY5Y cells (FIG. 5, from the lower to the upper part of the figure, rectangular wave current stimulation was applied. The current strengths were 6, 8, 10, and 12 pA from the bottom). Before the application of Aβ25-35 peptide, action potentials were not induced at stimulation currents of 6 pA and 8 pA, but action potentials were recorded at stronger stimulation currents (10 pA and 12 pA).
By using magnetic conductive nanoparticles as intracellular electrodes for measuring the neuronal action potentials of differentiated SH-SY5Y cells, and combining this with a capacitive potential detection device to measure changes in intracellular potentials, the spontaneous action potentials of these cells were measured. Specifically, 6.25 nM of the T1R3 agonist Aβ25-35 peptide was added to 400 μl of SH-SY5Y cell culture medium, and the spontaneous action potentials before and after the addition of Aβ25-35 peptide were measured to observe the changes.
This membrane potential recording method focuses on the magnetic conductive nanoparticles penetrating the cell membrane, the cover glass on which the cells are seeded, and the electrode placed below the cover glass forming a capacitor. The charge (Q) charged to this capacitor is recorded as the membrane potential in terms of charge rather than voltage changes. Since the charge (Q) is obtained from Q=CV, where C is the capacitance and V is the potential, the charge changes measured here are influenced by the capacitor (C) (FIG. 43).

Another data set concerns Nav1.5. In words: Patch-clamp (voltage clamp) recording of VGSC current in HEK cells stably expressing Nav1.5. The conditions noted are these: for IC50: read-out: IC50 (VGSC inhibition).
Data set [6] has as its system SH-SY5Y cells. In words: Cell morphology observation, SH-SY5Y cells. In kind it is cell-based, human. As to conditions: 120 μM; undifferentiated SH-SY5Y cells.
Data set [7] deals with Nav1.6. In words: Patch-clamp recording of VGSC current in HEK (Nav1.6) cells. As to conditions: HEK Nav1.6, prepulse −80 mV; read-out: IC50 (VGSC inhibition). In kind it is cell-based, human.

Experimental findings from patent US20260240820A1, “METHOD FOR CONTROLLING MEMBRANE POTENTIAL-DEPENDENT ION CHANNEL THROUGH TYPE I TASTE RECEPTORS (T1RS)” (ION CHAT RESEARCH CORPORATE, priority 2022, published 2026) are described below.

Values joined by “and” are separate entries in the source; they are usually repeats but may differ in a detail not shown here. Equal entries are not always repeated. “Also recorded” adds a separate entry of the source. Where two headings read alike, the source gives them in different places. A value given as a limit tells only on which side of the number the result lay.

For the substance GSNKGAIIGLM [Aβ25-35], the “Effect on VGSC inward current” value in data set [1] is “enhancement of transient downward VGSC current; also recorded: enhancement of VGSC inward current”. The “Effect on VGSC current” value in the data set on Nav1.6 [2] is “VGSC enhancement”; with Nav1.1, “VGSC enhancement”; in the data set on VGSC (125 nM to 2 μM) it was “Ab25-35 (125 nM to 2 μM) enhances”; in the data set on Nav1.5 (1 μM, control HEK Nav1.5 cells), “enhancing effect; also recorded: enhancement effect”. Moreover, in the data set on VGSC, the “Effects on VGSCs” value is on record as “Enhancement of VGSC”. Further, the “Effect on VGSC current in the presence of colchicine” value in the data set with VGSC (12.5 nM, colchicine 2.25 μM) is “inhibits Aβ25-35-induced enhancement; also recorded: no further enhancement of VGSC current was observed”. Further, the “Effect on VGSC current in the presence of Latrunculin A” value with VGSC (12.6 μM LatA, Aβ25-35 printed 12.5 μM) is on record as “VGSC amplification; also recorded: doubled”. In addition, the “Enhancement of VGSC current at high(er) concentration” value in the data set on VGSC is reported as “VGSC current but not at higher”; with VGSC (listed as Ab25-35), “Ab25-35 is suppressed”. Further, the entries for the “Effect on VGSC in T1R3-silenced cells” value in data set [3] and in data set [3] (listed as ab25-35) were “is lost” and “T1R3 silencing nullifies ab25-35's”, respectively. Further, in data set [3] (2 μM), the “Change in VGSC” value is “no change in VGSC was observed”. The “Change in intracellular calcium” value in data set [4] is “an increase in intracellular calcium was observed”. Besides, the “Microtubule fibrous structure (GFP-Tubulin)” value in the data set on HEK Nav1.5 cells is listed as “disappearance of microtubule-like structures”. In addition, the “Frequency of spontaneous action potentials” value with SH-SY5Y cells [5] (6.25 nM, NanoCharge method) was “an increase in spontaneous action potential frequency; also recorded: an increase in the frequency of spontaneous action potentials”. In the data set on SH-SY5Y cells [5] (current clamp, 6-12 pA stimulation), the “Excitability / action potential threshold” value was “increased the excitability of SH-SY5Y cells; also recorded: threshold for generating action potentials was lowered”. For the same substance, in the data set with Nav1.5 (12.5 nM, perforated patch-clamp), the “Cell membrane capacitance and VGSC current” value was “increase in cell membrane capacitance and VGSC current”. The “Cell membrane capacitance and VGSC currents” value in the data set on Nav1.5 (120 nM, perforated patch-clamp) is given as “increased”; in the data set on Nav1.5 (240 nM, perforated patch-clamp) it was “decreased to control levels”. In addition, in the data set on Nav1.5 (control without anti-T1R3 antibody pre-treatment), the “Increase in VGSC current amplitude” value is recorded as 10-20%. The “VGSC current density (pA/pF)” value in the data set with Nav1.5 (low concentration, perforated patch-clamp) was “current density of VGSC increased”.
In the case of Aspartame, the “Effects on VGSCs” value with VGSC is reported as “Inhibition of VGSCs”. In the data set with VGSC (50 μM), the “Inhibition of VGSC” value is on record as > 90%. Inhibition is due to a parallel shift. Besides, the IC50 (commonly the concentration at which inhibition is half-maximal) was 15 to 17 µM and < 17 µM with VGSC (listed as aspartame); less than 50 µM with VGSC; 17 µM with Nav1.6 [7]; 15.3 µM in the data set with Nav1.5 (prepulse −70 mV); 49.7 µM in the data set with Nav1.5 (prepulse −100 mV). In addition, in the data set on SH-SY5Y cells [6], the “Change in cell morphology” value is on record as “contracted cell morphology; also recorded: cell contraction”.
